The subject of one data set is HEK293T. The data set is described as follows: Mammalian cytotoxicity counter screen, luminescent ATP viability assay. Particulars: toxicity in mammalian cell cultures versus G. lamblia GS-clone 7 trophozoites. The format is cell-based, human. A general note: Counterscreens check selectivity or assay interference.
The next data set relates to G. lamblia CBG99. The data set is described as follows: Luciferase reporter acute murine Giardia infection model, whole animal IVIS imaging. The class given is in vivo, Giardia lamblia. The text has this:
The method relies on a stable constitutive luciferase reporter, CBG99 (Click beetle green), that correlates with parasite load in vitro and in vivo. […] Only mice with confirmed infections are used in experiments.
All animal experiments were approved by the Institutional Animal Care and Use Committees at the University of Washington.
The method relies on a stable constitutive reporter, CBG99, that correlates with total parasite load.
In general terms: Reporter assays use an easily measured gene product as a stand-in for the process of interest.

The nature of data set [1]: Resazurin-based viability assay, HepG2. The format is cell-based. Particulars: human, HepG2 hepatocellular carcinoma cells. On the procedure: (§1) Experimental details for the assays were earlier described (Love et al., 2017, PLoS Negl Trop Dis 11:e0005373). Compounds in the follow-up assays were also tested for the inhibition of CRL-8155 (human lymphocytic cells and human hepatocellular carcinoma cells (HepG2; ATCC HB-8065) in a resazurin-based viability assay as indicators of potential host cell toxicity. Assays were performed as previously reported (Vidadala et al., 2014, Eur J Med Chem 74:562-57).
Background: The colour change of resazurin is a common sign of viable cells or microbes.

In data set [2] the test system is metronidazole resistant 713-M3 strain. The data set is described as follows: Cell growth inhibition against metronidazole resistant 713-M3 strain. The format is cell-based, Giardia lamblia. On the procedure: (§2) Giardia lamblia culture. G. lamblia WB6 strain, G. lamblia CBG99 strain, metronidazole-resistant strain 713-M3 and G. lamblia (Lambl) Alexeieff trophozoites (GS-clone H7; ATCC 50581) used for the primary screening were maintained in modified TYI-S-33 medium (ATCC 2695) and assayed as earlier described (Keister, 1983, Trans R Soc Trop Med Hyg 77: 487-488). Subsequent assays, including the mouse model of infection, used the G. lamblia click beetle green (CBG99) strain which was grown and assayed as previously described (Michaels et al., 2020, J Antimicrob Chemother 75:1218-1227; and Keister, 1983, Trans R Soc Trop Med Hyg 77:487-488).

Data set [3] concerns G. lamblia WB6 (Assemblage A). The data set is described as follows: Cell growth inhibition against G. lamblia WB6. The format is cell-based, Giardia lamblia. The protocol:
as §2

Data set [4] is described as follows: Mouse pharmacokinetics, plasma concentration by LC-MS/MS. The class given is in vivo. The following applies: for half-life: read-out: average half-life (t1/2); for Cmax: mouse plasma. The protocol: Methods for pharmacokinetic studies and analysis of mouse plasma compound concentrations by liquid chromatography with tandem mass spectrometry (LC-MS/MS) have previously been described (Hulverson et al., 2017, J Infect Dis 215:1275-1284; Ojo et al., 2012, J Clin Invest 122:2301-2305; and Schaefer et al., 2016, J Infect Dis 214:1856-1864). The pK studies was performed in groups of 3 mice per compound. […] Blood samples collected at intervals between 0.5 and 24 hours were separated and extracted with acetonitrile for measurement of compound concentrations by combined liquid chromatography-electrospray mass spectrometry (LC/ES-MS).

For data set [5] the following is noted: adult humans, daily oral doses over 7 days; cited from earlier work.
The test system of data set [6] is G. lamblia GS-clone H7 trophozoites. The data set is described as follows: G. lamblia GS-clone H7 trophozoite growth, ATP-based bioluminescence (BacTiter-Glo) primary screen and dose response. The format is cell-based. Particulars: read-out: Anti-Giardia EC50.
Data set [7] can be described thus: Resazurin-based viability assay, CRL-8155. The format is cell-based. Particulars: human, CRL-8155 lymphocytic cells; CRL-8155 cells. The protocol:
as §1

A short description of data set [8]: Clinical evaluation of overall health of mice in PK and efficacy studies. The class given is in vivo.
Data set [9] can be described thus: Mouse pharmacokinetics, plasma concentration by LC-MS/MS. The format is in vivo. The following applies: infected mice, all treatment groups, days 6 and 7 post-infection (24 and 48 hours after first dose).
The mark [10] stands for this setting: G. lamblia GS-clone H7 (Assemblage B) trophozoites, 48 hours, dose response.

Data on seven compounds can be found in patent US20250360138A1 (priority 2022, published 2025).

Entries after “also recorded” stand apart in the source; their conditions may differ. Where two headings read alike, the source gives them in different places.

Method for HEK293T: Mammalian cytotoxicity assays. Mammalian cell lines were used for counter screening for general cytotoxicity of hit compounds from the primary screen: human embryonic kidney cells (HEK293T; ATCC CRL-3216) was used in a luminescent ATP assay for detection of cell viability.
Data analysis. Relative luminescence units (RLU) values were analyzed in Genedata Screener (v13.0-Standard). RLU was normalized to neutral controls minus inhibitors (DMSO-treated wells minus metronidazole-treated wells). For single-point primary assay plates, an additional run-wise median correction was applied to reduce screen artifacts, whereas no corrections were applied to triplicate dose response plates. For the mammalian cytotoxicity assays, RLU was uploaded into Genedata Screener, and the data was normalized to DMSO-treated wells minus puromycin-treated wells.

For the compound `CS(=O)(=O)Nc1ccc(C(=O)O[C@@H](Cc2c(Cl)c[n+]([O-])cc2Cl)c2ccc(OC(F)F)c(OCC3CC3)c2)cc1OCC1CC1` [CHF-6001], the “Selectivity index (SI), CC50/EC50” value in the data set on HEK293T was above 12.
In general, CC50 refers to the concentration giving 50% cytotoxicity. A higher CC50 goes with better tolerance by the cells. Usually EC50 stands for the midpoint of the concentration-response curve. By Cmax is commonly meant the highest concentration seen after dosing. By AUC is commonly meant the area under the concentration-time curve, a measure of exposure. A higher AUC goes with high exposure. In general, Tmax refers to the time from dosing to the highest level. Turning to `C=CC(=O)N[C@H]1CN(c2nc(Nc3cn(C)nc3OC)c3ncn(C)c3n2)C[C@@H]1F` [Mavelertinib], the clearance of infection entry in the data set with G. lamblia CBG99 (IFN-γ-knockout mice, 1 mg/kg QD×4 days (days 6-9 p.i.), 1 mg/kg) is “None of the 1 mg/kg QD×4 days mice were relieved of their infection; also recorded: did not clear the infection after 4 doses”; in the data set with G. lamblia CBG99 (mice, 2.5 mg/kg QD×2 days), “one of four mice remained infected”; in the data set on G. lamblia CBG99 (mice, 50 mg/kg QD for 3 days, oral), “appeared to clear the infection”; in the data set with G. lamblia CBG99 (mice, one- and two-day dosing of 50 mg/kg QD) it was “all treated mice were cleared of infection and remained clear a week after dosing”. Also, the “efficacy in the acute murine Giardia infection model” value in the data set on G. lamblia CBG99 (dosed as low as 5 mg/kg or as high as 50 mg/kg) is recorded as “efficacious; also recorded: effectively clears Giardia infection”. For the same compound, the “clearance of infection (luminescence signal)” value in the data set on G. lamblia CBG99 (mice, 5 mg/kg QD×2 days, 5 mg/kg) is on record as “cleared the infection below the background signal; also recorded: absence of luminescence signal”; with G. lamblia CBG99 (mice, 20 mg/kg QD×2 days, 20 mg/kg), “cleared the infection below the background signal; also recorded: absence of luminescence signal”; in the data set on G. lamblia CBG99 (mice, 50 mg/kg QD×1 day, 50 mg/kg) it was “cleared the infection below the background signal; also recorded: absence of luminescence signal”. Also, in the data set with G. lamblia CBG99 (mice, one week after the last therapeutic dose), the “parasite rebound after treatment” value is listed as “parasites did not rebound”. Further, the CC50 in [1] and in data set [7] was above 80 µM throughout. The EC50 in data set [2] (Giardia duodenalis) is 0.07 µM; in data set [3] (Giardia duodenalis), 0.27 µM; in data set [6] (Giardia duodenalis, 48 h) it was 2.34 µM. Moreover, the half-life in data set [4] (in vivo, mouse, single oral 5 mg/kg) worked out at 3.99 h; in data set [4] (plasma, mouse, single oral 20 mg/kg), 2.91 h; in [4] (plasma, mouse, single oral 50 mg/kg), 2.09 h. Moreover, the Cmax in data set [4] (single oral 5 mg/kg) was found to be 0.63 µM; in data set [4] (single oral 20 mg/kg), 3.5 µM; in data set [4] (single oral 50 mg/kg), 9.3 µM. In addition, the plasma level entry in [4] (mouse, 1 mg/kg QD, 1 mg/kg) is “barely detectable in the plasma of one mouse at 0.5 hours post dose and below the limit of detection at all subsequent time points”. In [4] (mouse, all dosage groups, single dose), the “plasma concentration at 24 h post dose” value is reported as “cleared from plasma by 24 hours; also recorded: below the detection limit”. Besides, the AUC was determined as 89 µmol·min/L in data set [4] (mouse, single oral 5 mg/kg); 300 µmol·min/L in data set [4] (mouse, single oral 20 mg/kg); 812 µmol·min/L in data set [4] (mouse, single oral 50 mg/kg). For the same compound, the Clearance in data set [4] (mouse, single oral 5 mg/kg) is given as 0.015 L/min; in data set [4] (mouse, single oral 20 mg/kg), 0.004 L/min; in data set [4] (mouse, single oral 50 mg/kg) it was 0.0016 L/min. Further, the Tmax in data set [4] (plasma, oral, mouse, all doses) is 0.5 h. The “daily oral dose causing diarrhea and skin toxicities as most common adverse events” value in [5] is listed as above 150 mg. The “signs of toxicity in mice” value in data set [8] is “no sign of toxicity; also recorded: no observable mavelertinib induced toxicology potentials”. Moreover, in data set [9], the plasma trough levels result is recorded as “below the limit of quantitation”.
Regarding `CS(=O)(=O)OCCN(CCBr)c1c(C(=O)NCCOP(=O)(O)O)cc([N+](=O)[O-])cc1[N+](=O)[O-]` [PR-104], the EC50 in data set [6] (setting [10]) amounted to 1.98 µM.
On to `CCN(CC)CCn1c(=O)c(Cc2ccc(OC)cc2)nc2ccccc21` [caroverine], for which, in the data set on HEK293T, the “Selectivity index (SI), CC50/EC50” value is above 2. For the same compound, the EC50 in [6] (Giardia duodenalis, G. lamblia GS-clone H7 (Assemblage B) trophozoites, 48 hours, dose response) is 13.7 µM.
As to `Cc1ncc([N+](=O)[O-])n1CCO` [metronidazole], the clearance of infection result in the data set with G. lamblia CBG99 (mice, 20 mg/kg QD×3 days) is given as “remained infected after treatment”.
For the compound `CC(=O)C[C@H]1CCCCN1` [pelletierine], the EC50 in [2] (metronidazole resistant 713-M3, read-out: EC50) is above 25 µM; in data set [3], above 25 µM; in [6] (setting [10]) it was 20.3 µM.
For `CCCN(CCC)c1ccc(N=Nc2ccccc2C(=O)O)cc1` [propyl red], in data set [6] (setting [10]), the EC50 was 5.78 µM.
